Experimental data from ChEMBL document CHEMBL1201862, “PubChem BioAssay data set” (2004).
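Protocol summary: plate cells (96-well), add compound at 5 concentrations, incubate 48 h, interpolate endpoints linearly. GI50 = concentration required for 50% inhibition of growth.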 Calls of active or inactive are those of the source. Cut-off read from the data, not from the text of the source: active = GI50 up to about 1.1 µM and inactive = higher.

Experiments:
Assay in all cases: DTP human tumour cell line panel, 48 h
786-0 = tested on: 786-0
A498 = tested on: A498
A549 = tested on: A549
ACHN = tested on: ACHN
CAKI-1 = tested on: CAKI-1
CCRF-CEM = tested on: CCRF-CEM
COLO 205 = tested on: COLO 205
DU-145 = tested on: DU-145
EKVX = tested on: EKVX
HCC 2998 = tested on: HCC 2998
HCT-116 = tested on: HCT-116
HCT-15 = tested on: HCT-15
HL-60 = tested on: HL-60
HOP-62 = tested on: HOP-62
HOP-92 = tested on: HOP-92
HT-29 = tested on: HT-29
Hs-578T = tested on: Hs-578T
IGROV-1 = tested on: IGROV-1
K562 = tested on: K562
KM12 = tested on: KM12
LOX IMVI = tested on: LOX IMVI
M14 = tested on: M14
MCF7 = tested on: MCF7
MDA-MB-231 = tested on: MDA-MB-231
MDA-MB-435 = tested on: MDA-MB-435
MDA-N = tested on: MDA-N
MOLT-4 = tested on: MOLT-4
Malme-3M = tested on: Malme-3M
NCI-H23 = tested on: NCI-H23
NCI-H460 = tested on: NCI-H460
NCI-H522 = tested on: NCI-H522
NCI/ADR-RES = tested on: NCI/ADR-RES
OVCAR-3 = tested on: OVCAR-3
OVCAR-4 = tested on: OVCAR-4
OVCAR-5 = tested on: OVCAR-5
OVCAR-8 = tested on: OVCAR-8
PC-3 = tested on: PC-3
RPMI-8226 = tested on: RPMI-8226
RXF 393 = tested on: RXF 393
SF-268 = tested on: SF-268
SF-295 = tested on: SF-295
SF-539 = tested on: SF-539
SK-MEL-28 = tested on: SK-MEL-28
SK-MEL-2 = tested on: SK-MEL-2
SK-MEL-5 = tested on: SK-MEL-5
SK-OV-3 = tested on: SK-OV-3
SN12C = tested on: SN12C
SNB-19 = tested on: SNB-19
SNB-75 = tested on: SNB-75
SW-620 = tested on: SW-620
T47D = tested on: T47D
TK-10 = tested on: TK-10
U-251 = tested on: U-251
UACC-257 = tested on: UACC-257
UO-31 = tested on: UO-31
NCI-H226 = tested on: NCI-H226
SR = tested on: SR
UACC-62 = tested on: UACC-62

Measured: GI50

COC(=O)c1ccc2c(c1)CC1(C2)Cc2cc3c(cc2C1=O)CCC3 (centres undefined)
34.9 µM: HCT-15
inactive: 786-0 53 µM | A498 64.3 µM | A549 36.7 µM | ACHN 34.9 µM | CAKI-1 14.6 µM | CCRF-CEM 15 µM | COLO 205 14.8 µM | DU-145 57.7 µM | EKVX 61.2 µM | HCC 2998 40.3 µM | HCT-116 29.6 µM | HL-60 16.8 µM | HOP-62 46.5 µM | HOP-92 28.2 µM | HT-29 15.4 µM | Hs-578T 77.4 µM | IGROV-1 44.1 µM | K562 17.5 µM | KM12 9.46 µM | LOX IMVI 24.3 µM | M14 19.2 µM | MCF7 20.9 µM | MDA-MB-231 36.4 µM | MDA-MB-435 23.8 µM | MDA-N 21.1 µM | MOLT-4 10.9 µM | Malme-3M 27.4 µM | NCI-H23 43.6 µM | NCI-H460 37.2 µM | NCI-H522 39.6 µM | NCI/ADR-RES 22 µM | OVCAR-3 26.7 µM | OVCAR-4 24.7 µM | OVCAR-5 84.1 µM | OVCAR-8 31.6 µM | PC-3 39.4 µM | RPMI-8226 13.2 µM | RXF 393 30.1 µM | SF-268 79.6 µM | SF-295 56.5 µM | SF-539 > 100 µM | SK-MEL-28 46.1 µM | SK-MEL-2 38.8 µM | SK-MEL-5 9.18 µM | SK-OV-3 98.6 µM | SN12C 22 µM | SNB-19 > 100 µM | SNB-75 21.6 µM | SW-620 60.4 µM | T47D 42.5 µM | TK-10 54.1 µM | U-251 33.7 µM | UACC-257 18.3 µM | UO-31 38.7 µM

COC(=O)C1(Cc2ccccc2)Cc2ccccc2C1=O (centres undefined)
inactive: 786-0 60.5 µM | A549 32.9 µM | ACHN 36.6 µM | CAKI-1 83 µM | CCRF-CEM 35.8 µM | COLO 205 49.9 µM | DU-145 83.4 µM | EKVX 30.3 µM | HCC 2998 42.3 µM | HCT-116 36.1 µM | HL-60 19.7 µM | HOP-62 72.1 µM | HOP-92 59.2 µM | HT-29 45.3 µM | Hs-578T 61.1 µM | IGROV-1 72.8 µM | K562 35 µM | KM12 27.7 µM | LOX IMVI 43.7 µM | M14 32.5 µM | MCF7 42.1 µM | MDA-MB-231 83.6 µM | MDA-MB-435 22.6 µM | MDA-N 32.1 µM | MOLT-4 25.6 µM | Malme-3M 16.3 µM | NCI-H226 35.6 µM | NCI-H23 45.8 µM | NCI-H460 46 µM | NCI/ADR-RES 25.7 µM | OVCAR-3 39.3 µM | OVCAR-4 25.4 µM | OVCAR-5 > 100 µM | OVCAR-8 50.8 µM | PC-3 44.9 µM | RPMI-8226 35 µM | SF-268 70.8 µM | SF-295 66.8 µM | SF-539 > 100 µM | SK-MEL-28 65.9 µM | SK-MEL-2 19.1 µM | SK-MEL-5 20 µM | SK-OV-3 > 100 µM | SN12C 35.2 µM | SNB-75 42.7 µM | SR 23.8 µM | SW-620 55 µM | T47D 43.1 µM | TK-10 57 µM | U-251 27.7 µM | UACC-257 45.8 µM | UACC-62 67.3 µM | UO-31 23.3 µM
37.2 µM: HCT-15
